We go through one molecule from patent publication US7132454B2, “HEXIM1 as a suppressor of HIV replication and cardiac hypertrophy” (Regents of the University of California, priority 2004, dated 2006).

One series concerns cardiac hypertrophy. Kind of series: HMBA infusion in patients having or susceptible to cardiac hypertrophy. The class given is in vivo. The conditions noted are these: 24 g/m^2/d in 10-day courses. As to the method:
Genetic testing, and/or ECG and echocardiography are used to diagnose patients susceptible to hypertrophic cardiomyopathy using methods described by Charron et al. (1997 & 2003). For genetic testing, candidate patients are from families involved in genetic studies in whom genetic analyses are performed and the causative mutation identified. Patients are identified as being at risk of inheriting the disease gene, i.e., they have a first-degree relative clinically affected by hypertrophic cardiomyopathy. The major diagnostic criteria for echocardiography are a left ventricular wall thickness >13 mm and, for ECG, abnormal Q waves, left ventricular hypertrophy, and marked ST-T changes. Clinical evaluation is performed, and blood samples are obtained. Using methods adapted from Andreeff et al. (1992), patients diagnosed as having or susceptible to cardiac hypertrophy are given HMBA treatment. A 5% solution of HMBA (NSC-95580) in distilled water is provided in 500-ml infusion bottles (25 g total per bottle). HMBA is administered at a dose of 24 g/m^2/d in 10-day courses, followed by an 18- to 75-day observation period. Plasma levels are determined daily (at 24 hours into the infusion). […] HMBA plasma levels are determined using HPLC.

In the next series the test system is HIV. The conditions noted are these: cited from earlier work.
Series [1] concerns right ventricular myocytes. Kind of series: myocardial infarction model, HMBA by osmotic minipump; ventricular myocyte hypertrophy and action potential. Type of series: in vivo, male Wistar rats. An excerpt:
In a method adapted from Perrier et al. (2004), myocardial infarction (MI) is induced in 250 to 280 g male Wistar rats by left coronary artery ligation. Only post-MI hearts that show a transmural scar are used. An osmotic minipump (Alzet 2ML4) is implanted subcutaneously at the time of surgery to deliver varying amounts of HMBA or other HPC. Control animals receive carrier solution only. Cellular responses are examined over time using whole-cell, patch-clamp techniques on right ventricular myocytes. Animals are euthanized 1 and 3 weeks after surgery with intraperitoneal injection of sodium pentobarbital. Ventricular myocytes are isolated enzymatically. Cellular hypertrophy is monitored by 2-photon microscopy (Zeiss LSM 510 NLO) to calculate cell volume and the whole-cell patch-clamp technique is used to measure membrane capacitance, an electrical index of membrane surface area. To measure cell volume, the voltage-sensitive dye 1-(3-sulfonatopropyl)-[…][b-[2-(di-n-butylamino)-6-naphthyl]vinyl]pyridium betaine (di-4-ANEPPS)-loaded cells are illuminated at 840 nm with a mode-locked Ti:sapphire laser (Mira 900, Coherent) and recorded in 3D. Images of spherical beads (Molecular Probes) are recorded under the same conditions to calculate the point spread function. Deconvolution is performed with Huygens (Bitplane AG). […] AP and K^+ are measured. […]

The test system of the next series is HSV. The conditions noted are these: cited from earlier work.
Series [2] deals with human vascular smooth muscle cell (VSMC). The conditions noted are these: cited from earlier work.

Turning to `CC(=O)NCCCCCCNC(C)=O` [HMBA, Hexamethylene bisacetamide], the “cardiac hypertrophy by morphologic analyses” value in the series on cardiac hypertrophy (certain patients) is listed as “reduces cardiac hypertrophy”. Moreover, the most prominent toxicity entry in the series on cardiac hypertrophy (patients) is recorded as “thrombocytopenia, generally reversible on cessation of administration”. Further, the “activation of HIV” value in the series with HIV is recorded as “activate viruses”. Besides, the action potential result in series [1] (rats after myocardial infarction, 1 and 3 weeks) is on record as “normal action potential”. The cellular hypertrophy result in series [1] (rats, three weeks after myocardial infarction) was “no signs of cellular hypertrophy”. The “activation of HSV” value in the series on HSV is on record as “activate viruses”. Also, the VSMC proliferation result in series [2] is “inhibit human vascular smooth muscle cell (VSMC) proliferation”.
